Key:
[1] = test system: pigweed; assay: Test A preemergence; format: in vivo, Amaranthus retroflexus; details: preemergence
Summary of the method: (§1)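 Pre- and postemergence greenhouse test; loam+sand; cpd in non-phytotox. solvent/surfactant; post at 1–2 leaf, 2–10 cm; visual score ~10 d, 0 = none, 100 = complete control.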

[2] = test system: wheat; assay: Test A postemergence; format: in vivo, Triticum aestivum
Summary of the method: as §1

[3] = test system: rice; assay: Test B flood; format: in vivo, Oryza sativa; details: 250 g ai/ha, visual rating on 0 to 100 scale (0 no effect, 100 complete control), 13 to 15 days
Summary of the method: (§2)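 2-leaf plants; pots flooded 3 cm over soil; compound added to paddy water, depth kept constant. Greenhouse 13–15 d. Visual rating vs controls, 0–100 scale (100 = complete control); dash = no result.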

[4] = test system: sedge, umbrella; assay: Test B flood; format: in vivo, Cyperus difformis; details: 250 g ai/ha, visual rating on 0 to 100 scale (0 no effect, 100 complete control), 13 to 15 days
Summary of the method: as §2

[5] = test system: wheat; assay: Test C preemergence; format: in vivo, Triticum aestivum; details: preemergence; for Plant response rating, Wheat: 125 g ai/ha, scale 0 to 100, 0 = no effect, 100 = complete control
Summary of the method: (§3)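 In this greenhouse assay, seeded soil (loam plus sand) or emerged seedlings in peat-vermiculite medium were treated with formulated compound. Roughly two weeks later (13–15 days), each species was scored visually relative to controls, from 0 for no effect to 100 for complete control.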

[6] = test system: galium; assay: Test C preemergence; format: in vivo, Galium aparine; details: preemergence; for Plant response rating, Galium: 125 g ai/ha, scale 0 to 100, 0 = no effect, 100 = complete control
Summary of the method: as §3

[7] = test system: corn; assay: Test C preemergence; format: in vivo, Zea mays; details: preemergence; for Plant response rating, Corn: 125 g ai/ha, scale 0 to 100, 0 = no effect, 100 = complete control
Summary of the method: as §3

[8] = test system: lambsquarters; assay: Test C preemergence; format: in vivo, Chenopodium album; details: preemergence; for Plant response rating, Lambsquarters: 125 g ai/ha, scale 0 to 100, 0 = no effect, 100 = complete control
Summary of the method: as §3

[9] = test system: ragweed; assay: Test C preemergence; format: in vivo, Ambrosia elation; details: preemergence; for Plant response rating, Ragweed: 125 g ai/ha, scale 0 to 100, 0 = no effect, 100 = complete control
Summary of the method: as §3

[10] = test system: ryegrass, Italian; assay: Test C postemergence; format: in vivo, Lolium multiflorum
Summary of the method: as §3

[11] = test system: crabgrass, large; assay: Test C postemergence; format: in vivo, Digitaria sanguinalis; details: for Plant response rating (scale of 0 to 100 where 0 is no effect and 100 is complete control), Crabgrass, Large: Postemergence, 31 g ai/ha, visually evaluated after 13 to 15 days; for Crabgrass, Large plant response rating / Plant response rating, Crabgrass, Large: postemergence; for Crabgrass, Large plant response rating: 62 g ai/ha, scale 0 to 100
Summary of the method: as §3

[12] = test system: lambsquarters; assay: Test C postemergence; format: in vivo, Chenopodium album; details: for Plant response rating (scale of 0 to 100 where 0 is no effect and 100 is complete control), Lambsquarters: Postemergence, 31 g ai/ha, visually evaluated after 13 to 15 days; for Lambsquarters plant response rating / Plant response rating, Lambsquarters: postemergence; for Lambsquarters plant response rating: 62 g ai/ha, scale 0 to 100
Summary of the method: as §3

[13] = test system: kochia; assay: Test C postemergence; format: in vivo, Kochia scoparia; details: for Plant response rating (scale of 0 to 100 where 0 is no effect and 100 is complete control), Kochia: Postemergence, 31 g ai/ha, visually evaluated after 13 to 15 days; for Kochia plant response rating / Plant response rating, Kochia: postemergence; for Kochia plant response rating: 62 g ai/ha, scale 0 to 100
Summary of the method: as §3

[14] = 500 g ai/ha, visual injury after approx. 10 days, 0 to 100 scale (0 no effect, 100 complete control)
[15] = Postemergence, 500 g ai/ha, 0 to 100 scale (0 no effect, 100 complete control)
[16] = postemergence, 125 g ai/ha, about 10 days, visual rating on 0 to 100 scale (0 no effect, 100 complete control)
[17] = 31 g ai/ha, visual rating, scale 0 to 100 (0 no effect, 100 complete control), 13 to 15 days
[18] = 62 g ai/ha, scale 0 to 100 (0 no effect, 100 complete control), 13 to 15 days
[19] = 250 g ai/ha, scale 0 to 100, 0 is no effect, 100 is complete control
[20] = postemergence, 250 g ai/ha, scale 0 to 100 (0 no effect, 100 complete control)
[21] = postemergence, 125 g ai/ha, scale 0 to 100, 0 no effect, 100 complete control
[22] = 250 g ai/ha, scale 0 to 100 (0 no effect, 100 complete control)
[23] = 125 g ai/ha, scale 0 to 100, 0 no effect, 100 complete control

CCOc1cc(C(=O)NOC(C)C)nn1Cc1ccnc(C(F)(F)F)c1 [Compound 153]
Pigweed plant response rating (0 to 100 scale) ([1]; 125 g ai/ha, visual injury approx. 10 days after treatment): 100 | Pigweed plant response rating [1, 14]: 100 | Wheat plant response rating [2, 15]: 100 | Wheat plant response rating [2, 16]: 90 | Plant response rating, Rice [3]: 40 | Plant response rating, Sedge, Umbrella [4]: 95 | Wheat plant response rating [5, 17]: 15 | Wheat plant response rating [5, 18]: 85 | Plant response rating, Wheat ([5]; 13 to 15 days): 90 | Wheat plant response rating [5, 19]: 90 | Galium plant response rating [6, 17]: 30 | Galium plant response rating [6, 18]: 100 | Plant response rating, Galium ([6]; 13 to 15 days): 100 | Galium plant response rating [6, 19]: 100 | Corn plant response rating [7, 17]: 10 | Corn plant response rating [7, 18]: 50 | Plant response rating, Corn ([7]; 13 to 15 days): 95 | Corn plant response rating [7, 19]: 98 | Lambsquarters plant response rating [8, 17]: 85 | Lambsquarters plant response rating [8, 18]: 98 | Plant response rating, Lambsquarters ([8]; 13 to 15 days): 98 | Lambsquarters plant response rating [8, 19]: 100 | Ragweed plant response rating [9, 17]: 50 | Ragweed plant response rating [9, 18]: 95 | Plant response rating, Ragweed ([9]; 13 to 15 days): 98 | Ragweed plant response rating [9, 19]: 98 | Plant response rating, Ryegrass, Italian [10, 20]: 5 | Plant response rating, Ryegrass, Italian [10, 21]: 5 | Plant response rating (scale of 0 to 100 where 0 is no effect and 100 is complete control), Crabgrass, Large [11]: 5 | Crabgrass, Large plant response rating [11]: 10 | Plant response rating, Crabgrass, Large [11, 22]: 45 | Plant response rating, Crabgrass, Large [11, 23]: 15 | Plant response rating (scale of 0 to 100 where 0 is no effect and 100 is complete control), Lambsquarters [12]: 65 | Lambsquarters plant response rating [12]: 55 | Plant response rating, Lambsquarters [12, 22]: 85 | Plant response rating, Lambsquarters [12, 23]: 75 | Plant response rating (scale of 0 to 100 where 0 is no effect and 100 is complete control), Kochia [13]: 50 | Kochia plant response rating [13]: 70 | Plant response rating, Kochia [13, 22]: 90 | Plant response rating, Kochia [13, 23]: 85

CCCNC(=O)c1cc(OCC)n(Cc2ccnc(OC(F)F)c2)n1 [Compound 136]
Pigweed plant response rating ([1]; 125 g ai/ha, visual injury, 0 to 100 scale, approx. 10 days): 100 | Pigweed plant response rating [1, 14]: 100 | Wheat plant response rating [2, 15]: 90 | Wheat plant response rating [2, 16]: 60 | Plant response rating, Rice [3]: 35 | Plant response rating, Sedge, Umbrella [4]: 80 | Wheat plant response rating [5, 17]: 10 | Wheat plant response rating [5, 18]: 65 | Plant response rating, Wheat ([5]; 13 to 15 days): 95 | Wheat plant response rating [5, 19]: 95 | Galium plant response rating [6, 17]: 85 | Galium plant response rating [6, 18]: 100 | Plant response rating, Galium ([6]; 13 to 15 days): 100 | Galium plant response rating [6, 19]: 100 | Corn plant response rating [7, 17]: 35 | Corn plant response rating [7, 18]: 70 | Plant response rating, Corn ([7]; 13 to 15 days): 60 | Corn plant response rating [7, 19]: 85 | Lambsquarters plant response rating [8, 17]: 98 | Lambsquarters plant response rating [8, 18]: 98 | Plant response rating, Lambsquarters ([8]; 13 to 15 days): 98 | Lambsquarters plant response rating [8, 19]: 100 | Ragweed plant response rating [9, 17]: 45 | Ragweed plant response rating [9, 18]: 75 | Plant response rating, Ragweed ([9]; 13 to 15 days): 75 | Ragweed plant response rating [9, 19]: 98 | Plant response rating (scale of 0 to 100 where 0 is no effect and 100 is complete control), Ryegrass, Italian ([10]; Postemergence, 31 g ai/ha, visually evaluated after 13 to 15 days): 5 | Ryegrass, Italian plant response rating ([10]; postemergence, 62 g ai/ha, scale 0 to 100): 5 | Plant response rating, Ryegrass, Italian [10, 20]: 30 | Plant response rating, Ryegrass, Italian [10, 21]: 5 | Plant response rating (scale of 0 to 100 where 0 is no effect and 100 is complete control), Crabgrass, Large [11]: 5 | Crabgrass, Large plant response rating [11]: 5 | Plant response rating, Crabgrass, Large [11, 22]: 40 | Plant response rating, Crabgrass, Large [11, 23]: 40 | Plant response rating (scale of 0 to 100 where 0 is no effect and 100 is complete control), Lambsquarters [12]: 80 | Lambsquarters plant response rating [12]: 85 | Plant response rating, Lambsquarters [12, 22]: 95 | Plant response rating, Lambsquarters [12, 23]: 98 | Plant response rating (scale of 0 to 100 where 0 is no effect and 100 is complete control), Kochia [13]: 90 | Kochia plant response rating [13]: 90 | Plant response rating, Kochia [13, 22]: 90 | Plant response rating, Kochia [13, 23]: 90

— patent publication US20150105252A1, “SUBSTITUTED PYRAZOLES AS HERBICIDES” (E I DU PONT DE NEMOURS AND COMPANY, priority 2013, published 2015)
